In ChEMBL document CHEMBL3507680, “University of Dundee, Gates Library screen for HepG2 cell viability”:

Test: Human HepG2 cell viability assay in 384 well format
Format: toxicity, cell-based
Parameters: dose 125 nL, time 70.5 hour; concentration not given beside the values
Conditions: HepG2 cells, read-out: Inhibition

| Compound | cytotoxicity at 70.5 h [%] |
| --- | --- |
| COCCN1CCCC(c2nc3c([nH]2)CC(C)(C)CNC3=O)C1 (stereo unspecified) | -3 |
| O=C1CN(c2ccc(CNC(=O)NCCO)cc2)CCN1 | -5.73 |
| c1cncc(NCCNC2CCCNC2)c1 (stereo unspecified) | 2.18 |
| Cn1cccc1C(=O)N1CC2(CCN(C(=O)c3cccnc3)C2)C1 | -7.36 |
| O=C(NCc1ccco1)[C@H]1C[C@@H]2CCN(c3ncccn3)C[C@H]2O1 | -5.11 |
| CN(C)CC1(O)CCCN(C(=O)c2ccccc2-n2cncn2)C1 (stereo unspecified) | -3.77 |
| O=C(CCc1nc2cccnc2[nH]1)Nc1cccnc1 | -16.2 |
| Cc1nnc(CN2CCCC2c2c(C)nn(C)c2Cl)o1 (stereo unspecified) | -11.6 |
| O=c1c(CN2CCSCC2)coc(O)c1CN1CCCC1 | 29.9 |
| COc1ccc(CCCC(=O)N2CCCC(n3cncn3)C2)cc1 (stereo unspecified) | -2.82 |
| Cc1noc(Cl)c1CC(=O)N1CCC(Nc2cccnn2)CC1 | -1.04 |
| Cn1cnnc1CNC(=O)C1CCCN(Cc2cccc(F)c2)C1 (stereo unspecified) | -13.7 |
| O=C(Cc1ccccn1)N1CCN(C(=O)CC2CCCCC2)CC1 | -2.98 |
| Cc1cc(C)n(CC2CN(CC(=O)NCc3cccs3)CCO2)n1 (stereo unspecified) | 13.4 |
| CCS(=O)(=O)N1CCC2(CC1)CN(CC1CCOC1)c1ccccc12 (stereo unspecified) | 26 |
| COc1cc(CNC(C)c2cccc(Cl)c2)cc(OC)c1OC (stereo unspecified) | -9.01 |
| Cc1ccnc(NC(=O)C2CCCO2)c1 (stereo unspecified) | 6.19 |
| O=C(NC1CCC1)[C@H]1C[C@@H]2CN(CC3CC3)C[C@H]1O2 | -0.535 |
| CC(C)n1cnnc1CN(C)C1CCCNC1 (stereo unspecified) | -10.1 |
| COC(=O)c1ccc2ccn(CC3CCCCO3)c(=O)c2c1 (stereo unspecified) | -4.76 |
| COc1ccc(NC(=O)c2cc3c([nH]c2=O)CCCC3=O)c(OC)c1 | -10.9 |
| CCC1CCCCN1Cc1ncc(-c2ccc(OC)cc2)o1 (stereo unspecified) | 18.3 |
| CC(C(=O)NCc1ccc(-n2cncn2)nc1)n1ccnc1 (stereo unspecified) | -18 |

| Compound | cytotoxicity at 70.5 h [%] |
| --- | --- |
| Cc1occc1C(=O)N1CCC2(CC1)CC(c1cccnc1)C(=O)N2C (stereo unspecified) | -17.4 |
| COc1ncccc1CNCc1cnc(N2CCOCC2)nc1 | -9.23 |
| O=C(NCCN1CCOCC1)Nc1cnc2cc(Cl)ccc2c1O | 12.7 |
| CC(NCC(=O)NCC(=O)Nc1ccc(F)cc1)c1cccs1 (stereo unspecified) | -17.8 |
| CSC(C)(C)CNC(=O)NC1CCN(CC(F)F)CC1 | -1.88 |
| Cc1ncc(C(=O)N2CCCC(C(=O)c3nccn3C)C2)c(O)n1 (stereo unspecified) | 9.55 |
| CN(CC(=O)Nc1cc(-c2cc(Cl)cc(Cl)c2)[nH]n1)S(C)(=O)=O | -5.73 |
| CC(C)=CCN1CCN(C(=O)C2CCS(=O)(=O)C2)CC1 (stereo unspecified) | 0.157 |
| COc1ccc(CS(=O)(=O)CC(=O)NCc2ccccc2F)cc1F | -11.2 |
| CCN1CCC(NC(=O)CN2CCc3c(ncn3C3CC3)C2)CC1 | -9.11 |
| COc1ccc(CNC(=O)NC(C)(CO)C2CC2)c(C(F)(F)F)c1 (stereo unspecified) | 0.673 |
| CC(C)c1cc(NC(=O)CNC2CCc3ncnn3C2)on1 (stereo unspecified) | 11.4 |
| COCCOCC(=O)NC(C#N)c1cccc(Cl)c1Cl (stereo unspecified) | -6.94 |
| Cc1ccccc1SC1CCN(C(=O)[C@H]2[C@@H]3CNC[C@@H]32)CC1 | -1.38 |
| CN(Cc1noc(C(C)(C)C)n1)CC1CCN(CCO)CC1 | -3.04 |
| Cc1nn(C)c2nc(-c3ccccn3)nc(NCCC3CCCN3C)c12 (stereo unspecified) | 1.37 |
| Cc1ccc(OCCN2CCN(Cc3cnn(CCO)c3)CC2)cc1 | -0.0785 |
| Cc1cc(CN2CCN(C(=O)NC(C)Cn3ccnc3)CC2)no1 (stereo unspecified) | -3.28 |
| Cc1nc(N(C)C)nc(C)c1NC(=O)c1ccccc1F | -7.08 |
| CCOCCOC(C)C(=O)Nc1ccc2c(ccn2CC)c1 (stereo unspecified) | -6.19 |
| CCc1nnsc1C(=O)N1CCCC(n2nc(C)nc2C)C1 (stereo unspecified) | -3.17 |
| CC(C)N(C)Cc1cncc2c1CCN(C(=O)c1ccccc1F)C2 | -1.95 |
| Cc1cccc2[nH]c(COCC(=O)N3CCCn4cncc4C3)nc12 | -6.34 |
